A short description of the data set: Forced degradation studies by TOF-MS. The format is physicochemical. The following applies: 0.5 mg/ml in potassium citrate, pH 8.1, 37° C. As for the experimental part: 0.5 mg/ml of PHAD was prepared in potassium citrate, pH 8.1 and stored at 37° C. pH 8.1 is outside the preferred ranges of the invention and induces degradation. Samples were prepared for analysis by the addition of 200 μL of CHCl3, 200 μL of methanol, and 100 μL of ammonium acetate in 80:20 methanol/water. After mixing the bottom layer was transferred and diluted with 100 μL of methanol. Samples were analyzed by electrospray time-of-flight (TOF) mass spectrometry (MS) in negative mode via direct infusion. […] In addition, those skilled in the art understand that various adduct ions may occur during each analysis from day to day. Therefore, molecular formulas are based upon the ions observed considering error of the system day to day. […] By Days 1, 7, 13, and 20 significant ions appear at 1309 and 1519 and continue to increase from Day 1 to Day 20. The MS ion at 1309 represents a loss of two acyl groups (molecular formula is C28H53O3; 437 Daltons) and the MS ion at 1519 represents a loss of a single acyl group (molecular formula is C14H27O2; 227 Daltons) from the diglucosamine scaffold. By Day 7, the mass intensity of the 1519 ion had increased to 46% of the mass intensity of the 1745 mass ion. On Day 0 the mass intensity of the 1519 ion was 4% of that of the 1745 mass ion.
0.5 mg/ml of 3-deacyl-phosphorylated hexaacyl disaccharide was prepared in potassium citrate, pH 8.1 and stored at 37° C. All preparation and analysis were conducted as listed in experiment 1. […] By Days 1, 13, and 22 a significant ion appeared at 1084 and continued to increase from Day 1 to Day 22. The MS ion at 1084 represents a loss of two acyl groups (molecular formula is C28H53O3; 437 Daltons) from the diglucosamine scaffold. By Day 13 the intensity of the 1084 mass ion had increased to 24% of the intensity of the 1521 mass ion. On Day 0 the intensity of the 1084 mass ion was 3% of the intensity of the 1521 mass ion. […] Phosphorylated hexaacyl disaccharide and 3-deacyl phosphorylated hexaacyl disaccharide primarily degrade by losing acyl groups. The formulations of the invention prevent the loss of these acyl groups.
Because it was both pure and abundant, the pentaacyl MLA component was chosen for examination of its degradation mechanism. […] The degradation experiment was conducted in PBS, pH 7.4 and stored at 37° C. This saline buffer system was selected because the use of saline is outside the preferred embodiments of the invention.

Take “3-deacyl-phosphorylated hexaacyl disaccharide”: the “intensity of the 1084 mass ion relative to the 1521 mass ion” value (Day 0) is 3% and the “intensity of the 1084 mass ion relative to the 1521 mass ion” value (Day 13) was 24%.
With “phosphorylated hexaacyl disaccharide [PHAD]”, the “mass intensity of the 1519 ion relative to the 1745 mass ion” value is listed as 4% (Day 0) and 46% (Day 7).

The record behind these values is patent US10058608B2, “Compositions of vaccines and adjuvants and methods for the treatment of urinary tract infections” (priority 2013, dated 2018).
